From the NIST ThermoML archive (doi:10.1016/j.jct.2017.01.004)
Numbers after ± are expanded uncertainties.

Assays:
[1] = Crystal; DTA
[2] = Molar enthalpy of transition or fusion; conditions: Crystal; DSC

Normal melting temperature [1]: 77.60 ± 1.1 °C
Molar enthalpy of transition or fusion [2]: 19.9 ± 1.1 kJ/mol
SMILES: O=C(O)CO [2-hydroxyethanoic acid]
